# Experimental data published in ChEMBL document CHEMBL3885881, “DrugMatrix”.
# Species: Rattus norvegicus
# Test: DrugMatrix - Regimen: Daily Repeat
# Type: toxicity, organism-based, Sprague-Dawley
# Design: regimen Daily Repeat, gender Male, age 6-8 weeks
# Settings: in vivo, po, route oral GAVAGE, […]; for ABSOLUTE BASOPHIL / ABSOLUTE EOSINOPHIL / ABSOLUTE LYMPHOCYTE / ABSOLUTE MONOCYTE / ABSOLUTE SEGMENTED NEUTROPHIL / BASOPHIL / EOSINOPHIL / ERYTHROCYTE COUNT / HEMATOCRIT / HEMOGLOBIN / LEUKOCYTE COUNT / LYMPHOCYTE / MEAN CORPUSCULAR HEMOGLOBIN / MEAN CORPUSCULAR HEMOGLOBIN CONCENTRATION / MEAN CORPUSCULAR VOLUME / MONOCYTE / NEUTROPHIL / NUCLEATED RED BLOOD CELLS / PLATELET COUNT: tissue Blood; for ALANINE AMINOTRANSFERASE / ALBUMIN / ALKALINE PHOSPHATASE / ASPARTATE AMINOTRANSFERASE / BLOOD UREA NITROGEN / CARBON DIOXIDE / CHLORIDE / CHOLESTEROL / CREATINE PHOSPHOKINASE / CREATININE / GLUCOSE / LACTATE DEHYDROGENASE / LIPASE / PHOSPHORUS / POTASSIUM / SODIUM / TOTAL BILIRUBIN / TOTAL PROTEIN / URIC ACID: tissue Plasma
# [1] = 13 mg/kg, 120 h, dose level Low, time 5 day
# [2] = 40 mg/kg, 72 h, dose level High, time 3 day
# [3] = 40 mg/kg, 120 h, dose level High, time 5 day
structure (smiles),measurement,setting,value
CN(C)c1nc(N(C)C)nc(N(C)C)n1 [ALTRETAMINE],ABSOLUTE BASOPHIL,[1],0 CELLS/uL
same,ABSOLUTE EOSINOPHIL,[1],0 CELLS/uL
same,ABSOLUTE LYMPHOCYTE,[1],9932 CELLS/uL
same,ABSOLUTE MONOCYTE,[1],0 CELLS/uL
same,ABSOLUTE SEGMENTED NEUTROPHIL,[1],334.67 CELLS/uL
same,BASOPHIL,[1],0%
same,EOSINOPHIL,[1],0%
same,ERYTHROCYTE COUNT,[1],5.3 x10E6/uL
same,HEMATOCRIT,[1],32.5%
same,HEMOGLOBIN,[1],12.67 G/DL
same,LEUKOCYTE COUNT,[1],10.27 x10E3/uL
same,LYMPHOCYTE,[1],96.33%
same,MEAN CORPUSCULAR HEMOGLOBIN,[1],23.93 pg
same,MEAN CORPUSCULAR HEMOGLOBIN CONCENTRATION,[1],38.97 G/DL
same,MEAN CORPUSCULAR VOLUME,[1],61.4 fL
same,MONOCYTE,[1],0%
same,NEUTROPHIL,[1],3.67%
same,NUCLEATED RED BLOOD CELLS,[1],0 /100WBC
same,PLATELET COUNT,[1],759.33 x10E3/uL
same,ALANINE AMINOTRANSFERASE,[1],60.67 u/L
same,ALBUMIN,[1],4.13 G/DL
same,ALKALINE PHOSPHATASE,[1],323.67 u/L
same,ASPARTATE AMINOTRANSFERASE,[1],87 u/L
same,BLOOD UREA NITROGEN,[1],13.33 mg/dL
same,CARBON DIOXIDE,[1],29.67 mmol/L
same,CHLORIDE,[1],98 MEQ/L
same,CHOLESTEROL,[1],69.67 mg/dL
same,CREATINE PHOSPHOKINASE,[1],230.33 u/L
same,CREATININE,[1],0.15 mg/dL
same,GLUCOSE,[1],150 mg/dL
same,LACTATE DEHYDROGENASE,[1],137.67 u/L
same,LIPASE,[1],22 u/L
same,PHOSPHORUS,[1],10.3 mg/dL
same,POTASSIUM,[1],5.84 MEQ/L
same,SODIUM,[1],143.3 MEQ/L
same,TOTAL BILIRUBIN,[1],0.1 mg/dL
same,TOTAL PROTEIN,[1],5.83 G/DL
same,URIC ACID,[1],0.87 mg/dL
same,ABSOLUTE BASOPHIL,[2],0 CELLS/uL
same,ABSOLUTE EOSINOPHIL,[2],41 CELLS/uL
same,ABSOLUTE LYMPHOCYTE,[2],13401 CELLS/uL
same,ABSOLUTE MONOCYTE,[2],108.67 CELLS/uL
same,ABSOLUTE SEGMENTED NEUTROPHIL,[2],749.33 CELLS/uL
same,BASOPHIL,[2],0%
same,EOSINOPHIL,[2],0.33%
same,ERYTHROCYTE COUNT,[2],5.98 x10E6/uL
same,HEMATOCRIT,[2],37.43%
same,HEMOGLOBIN,[2],14.53 G/DL
same,LEUKOCYTE COUNT,[2],14.3 x10E3/uL
same,LYMPHOCYTE,[2],93.67%
same,MEAN CORPUSCULAR HEMOGLOBIN,[2],24.33 pg
same,MEAN CORPUSCULAR HEMOGLOBIN CONCENTRATION,[2],38.83 G/DL
same,MEAN CORPUSCULAR VOLUME,[2],62.7 fL
same,MONOCYTE,[2],0.67%
same,NEUTROPHIL,[2],5.33%
same,NUCLEATED RED BLOOD CELLS,[2],0 /100WBC
same,PLATELET COUNT,[2],1084 x10E3/uL
same,ALANINE AMINOTRANSFERASE,[2],107.67 u/L
same,ALBUMIN,[2],4.17 G/DL
same,ALKALINE PHOSPHATASE,[2],335.33 u/L
same,ASPARTATE AMINOTRANSFERASE,[2],98.67 u/L
same,BLOOD UREA NITROGEN,[2],12.33 mg/dL
same,CARBON DIOXIDE,[2],26.33 mmol/L
same,CHLORIDE,[2],100.67 MEQ/L
same,CHOLESTEROL,[2],73 mg/dL
same,CREATINE PHOSPHOKINASE,[2],457.67 u/L
same,CREATININE,[2],0.17 mg/dL
same,GLUCOSE,[2],160.67 mg/dL
same,LACTATE DEHYDROGENASE,[2],170.67 u/L
same,LIPASE,[2],10.67 u/L
same,PHOSPHORUS,[2],10.97 mg/dL
same,POTASSIUM,[2],6.05 MEQ/L
same,SODIUM,[2],140.73 MEQ/L
same,TOTAL BILIRUBIN,[2],0.2 mg/dL
same,TOTAL PROTEIN,[2],5.73 G/DL
same,URIC ACID,[2],1.97 mg/dL
same,ABSOLUTE BASOPHIL,[3],0 CELLS/uL
same,ABSOLUTE EOSINOPHIL,[3],0 CELLS/uL
same,ABSOLUTE LYMPHOCYTE,[3],8752.67 CELLS/uL
same,ABSOLUTE MONOCYTE,[3],0 CELLS/uL
same,ABSOLUTE SEGMENTED NEUTROPHIL,[3],580.67 CELLS/uL
same,BASOPHIL,[3],0%
same,EOSINOPHIL,[3],0%
same,ERYTHROCYTE COUNT,[3],5.98 x10E6/uL
same,HEMATOCRIT,[3],36.53%
same,HEMOGLOBIN,[3],14.1 G/DL
same,LEUKOCYTE COUNT,[3],9.33 x10E3/uL
same,LYMPHOCYTE,[3],94.33%
same,MEAN CORPUSCULAR HEMOGLOBIN,[3],23.67 pg
same,MEAN CORPUSCULAR HEMOGLOBIN CONCENTRATION,[3],38.6 G/DL
same,MEAN CORPUSCULAR VOLUME,[3],61.23 fL
same,MONOCYTE,[3],0%
same,NEUTROPHIL,[3],5.67%
same,NUCLEATED RED BLOOD CELLS,[3],0 /100WBC
same,PLATELET COUNT,[3],779.67 x10E3/uL
same,ALANINE AMINOTRANSFERASE,[3],65.33 u/L
same,ALBUMIN,[3],4 G/DL
same,ALKALINE PHOSPHATASE,[3],406 u/L
same,ASPARTATE AMINOTRANSFERASE,[3],87.67 u/L
same,BLOOD UREA NITROGEN,[3],12.67 mg/dL
same,CARBON DIOXIDE,[3],34 mmol/L
same,CHLORIDE,[3],97.67 MEQ/L
same,CHOLESTEROL,[3],55.33 mg/dL
same,CREATINE PHOSPHOKINASE,[3],274.33 u/L
same,CREATININE,[3],0.15 mg/dL
same,GLUCOSE,[3],151 mg/dL
same,LACTATE DEHYDROGENASE,[3],133.67 u/L
same,LIPASE,[3],10 u/L
same,PHOSPHORUS,[3],10.63 mg/dL
same,POTASSIUM,[3],5.18 MEQ/L
same,SODIUM,[3],142.9 MEQ/L
same,TOTAL BILIRUBIN,[3],0.17 mg/dL
same,TOTAL PROTEIN,[3],5.77 G/DL
same,URIC ACID,[3],0.47 mg/dL
